# In US6068838A, “Purified multimerase” (Baxter Aktiengesellschaft, priority 1996, dated 2000):
# B1: plasmin: human plasmin from Chromogenics, serine protease used as comparison (protein, UniProt P00747 20-580; P00747 581-810, looked up)
# Plasmin heavy chain A: EPLDDYVNTQGASLFSVTKKQLGAGSIEECAAKCEEDEEFTCRAFQYHSKEQQCVIMAENRKSSIIIRMRDVVLFEKKVYLSECKTGNGKNYRGTMSKTKNGITCQKWSSTSPHRPRFSPATHPSEGLEENYCRNPDNDPQGPWCYTTDPEKRYDYCDILECEEECMHCSGENYDGKISKTMSGLECQAWDSQSPHAHGYIPSKFPNKNLKKNYCRNPDRELRPWCFTTDPNKRWELCDIPRCTTPPPSSGPTYQCLKGTGENYRGNVAVTVSGHTCQHWSAQTPHTHNRTPENFPCKNLDENYCRNPDGKRAPWCHTTNSQVRWEYCKIPSCDSSPVSTEQLAPTAPPELTPVVQDCYHGDGQSYRGTSSTTTTGKKCQSWSSMTPHRHQKTPENYPNAGLTMNYCRNPDADKGPWCFTTDPSVRWEYCNLKKCSGTEASVVAPPPVVLLPDVETPSEEDCMFGNGKGYRGKRATTVTGTPCQDWAAQEPHRHSIFTPETNPRAGLEKNYCRNPDGDVGGPWCYTTNPRKLYDYCDVPQCAAPSFDCGKPQVEPKKCPGR
# Plasmin light chain B: VVGGCVAHPHSWPWQVSLRTRFGMHFCGGTLISPEWVLTAAHCLEKSPRPSSYKVILGAHQEVNLEPHVQEIEVSRLFLEPTRKDIALLKLSSPAVITDKVIPACLPSPNYVVADRTECFITGWGETQGTFGAGLLKEAQLPVIENKVCNRYEFLNGRVQSTELCAGHLAGGTDSCQGDSGGPLVCFEKDKYILQGVTSWGLGCARPNKPGVYVRVSRFVTWIEGVMRNN
# modifications: Plasmin
# notes: human plasmin from Chromogenics, serine protease used as comparison
# Columns and labels:
# [1] = system: human fibrinogen; test: Incubation of other proteins with the purified protease: fibrinogen; type: biochemical; details: 0.4 mg/ml, undiluted barium-preincubated protease, 1 M urea, pH 8.0, 24 hours at 37° C.
# [2] = system: BSA; test: Incubation of other proteins with the purified protease: BSA; type: biochemical; details: 0.2 mg/ml, undiluted barium-preincubated protease, 1 M urea, pH 8.0, 24 hours at 37° C.
# [3] = system: calf skin collagen; test: Incubation of other proteins with the purified protease: collagen; type: biochemical; details: 0.4 mg/ml, undiluted barium-preincubated protease, 1 M urea, pH 8.0, 24 hours at 37° C.
# [4] = system: vWF; test: Polypeptide subunits and N-terminal sequence of vWF degraded by the purified protease; type: biochemical, human; details: from N-terminal sequences of 250, 170 and 140 kD bands
# Procedure: For analysis of the amino acid composition and of amino acid sequence, the unreduced peak fraction of the protease and the reduced vWF fragments were dialyzed against 1 mM EDTA, were lyophilized, and were redissolved in 1/50 of the original volume before SDS-PAGE. The HMW protein bands were electrotransferred from the gel to a PVDF (polyvinyliden-difluoride) membrane (BioRad) for 6 hours at 26 V and 0.4 A, using 0.05% SDS, 10% methanol, 0.05 M boric acid, pH 9.0, as transfer buffer. After transfer, the membrane was stained with Coomassie-Blue in 40% methanol, destained in 40% methanol and 10% acetic acid, and air-dried. The excised bands were transferred to the blot cartridge of the Applied Biosystems Model 477A sequenator, which was equipped with on-line high-performance liquid chromatography for analysis of phenylthiohydantoin derivatives, For analysis of amino acid compositions, the protein bands were hydrolyzed in the gas phase over 6N HCl for 22 hours at 110° C. The amino acids were extracted from the PVDF membrane with 70% 0.1 N HCl/30% methanol and were determined by high-performance liquid chromatography as phenylthiocarbamyl derivatives. The amino acid composition of the unreduced protein band coeluted from the Sephacryl S-300 HR column together with the protease activity is shown in Table 1. […]
# [5] = system: Recombinant vWF factor (r-vWF); test: Proteolytic fragmentation of recombinant vWF by the vWF protease preparation; type: biochemical
# Procedure: The buffer system which had been sufficiently optimized for the instant assaying system thus comprised a dialysis Solution with 1 M urea in 5 mM Tris-HCl at pH 8. Full activation of the protease was achieved by preincubation for 5 minutes at 37° C. with 10 mM barium chloride. In a typical experiment, 50 μl activated protease solution and 100 μl substrate solution were carefully placed on a floating membrane, and incubated in a closed tube for 24 h in a dry oven at 37° C.
# Recombinant vWF factor (r-vWF), produced according to FEBS-Letters 375, 259-262 (1995) with a concentration of 104 U (Ag)/ml in 20 mM TBS buffer, pH 8.3, was incubated as described above with the vWF protease preparation according to the invention.
# Analysis of the r-vWF and its proteolytic degradation products was performed on 1% and 2% agarose gels, also according to the method of Ruggeri et al. (Blood 57 (1981), 1140-1143). The vWF multimers were made visible by immunoenzymatic staining according to Aihara et al. (Thromb. Haemostas. 55 (1986), 263-267). A rabbit-anti-von Willebrand factor-antiserum (from Dakopatts, Glostrup, Denmark) was used as the primary antibody, and an alkaline phosphatase-conjugated, affinity-purified goat-anti-rabbit IgG H+L-antibody (from Axell Accurate Chemical and Scientific Corp, Westburg, N.Y.) served as the secondary antibody. […]
# [6] = system: vWF from cryoprecipitate; test: Degradation of plasmatic vWF (cryoprecipitate, highest molecular weight multimers) by vWF protease; type: biochemical, human
# [7] = Plasmin activity of the protease preparation with chromogenic substrate; type: biochemical; details: preparation after copper chelate affinity chromatography
# Source text: Thus, it was necessary to exclude the possibility that the protease preparation might effect a degradation of the von Willebrand factor multimers due to plasmin present in the preparation rather than as a result of the vWF-specific protease.
# [8] = Stability of the protease in solution; type: physicochemical
# Source text: In the absence of these ions the protease was quite stable in solution, and thus it was possible to purify the enzyme by chromatographic procedures taking place for several days at room temperature.
# [9] = Stability of purified vWF fractions on dialysis incubation; type: physicochemical; details: fractions 12 to 20, 24 h dialysis incubation at 37° C., absence of inhibitors, citrate/NaCl buffer or 1 M urea buffer
# Procedure: vWF was purified by gal filtration of human cryoprecipitate, obtained from 1 l citrated plasma, an a 2.6×35-cm column of Sepharose CL-2B (Pharmacia, Uppsala, Sweden). Elution was performed with 0.13 M sodium chloride, 0.01 M citrate, 0.01 M Tris-HCl, pH 7.4. Fractions of 6 ml were collected at a flow rate of 24 ml/h. vWF antigen was measured by ELISA by using polyclonal rabbit antiserum against human vWF (RAHu/FVIII, from Nordic (Tillburg, The Netherlands), peroxidase-labeled rabbit antihuman-vWF, mouse monoclonal antibody against rabbit IgG (M737), and the kit for immunostaining (K670) (all from Dako (Glostrup, Denmark)), according to the instructions included with the kit.
# SDS agarose gels of these assays are illustrated in FIG. 2 (panels A and B).
# [10] = system: r-vWF; test: Degradation of r-vWF with plasmin; type: biochemical
# [11] = system: plasmatic vWF; test: Degradation of plasmatic vWF (cryoprecipitate) with plasmin; type: biochemical, human; details: overnight digestion
# [12] = system: vWF; details: after cleavage with plasmin; cited from earlier work
molecule,measurement,setting,value
"protease: von Willebrand factor cleaving protease purified from human plasma, named multimerase; converts singlet vWF to satellite structure",degradation of human fibrinogen,[1],no degradation
same,degradation of BSA,[2],no degradation
same,degradation of calf skin collagen,[3],no degradation
same,peptide bond of vWF cleaved,[4],842Tyr-843Met
same,multimer pattern of r-vWF after incubation with protease,[5]; after 3 h,loss of the highest multimers
same,multimer pattern of r-vWF after incubation with protease,[5]; after 20 hours,oligomers and multimers could no longer be detected
same,multimer pattern of cryoprecipitate vWF on incubation with vWF protease,[6]; cryoprecipitate,loss of multimers could be observed over time
same,multimer pattern of highest molecular weight vWF multimers preparation with vWF protease,"[6]; laboratory preparation 10 U (Ag)/ml in 20 mm TBS buffer, pH 8.3",clear shift towards lower molecular weight multimers
same,plasmin activity,[7],0.2 U/ml
same,stability of the protease in solution,"[8]; in the absence of calcium, strontium and barium ions",quite stable
same,protease activity after prolonged preincubation,"[8]; prolonged preincubation with calcium, strontium and barium, even at physiological salt and without urea",loss of protease activity
"vWF: vWF purified by gel filtration of human cryoprecipitate, fractions 12 to 20",stability of vWF (multimer pattern),[9],very stable
B1,degradation of recombinant vWF,[10]; overnight digestion,completely degraded
same,degradation of r-vWF multimers (kinetic examination),"[10]; plasmin 0.2 U/ml admixed 1:1 with r-vWF, 37° C.",successive degradation of the multimers over 29 h
same,degradation of r-vWF,[10]; plasmin concentration reduced to 1:10,degraded more slowly
same,degradation of plasmatic vWF,[11],completely degraded
same,platelet agglutinating activity (ristocetin cofactor) retained by high molecular weight core region of vWF,[12],about 70%
